In patent US20180201650A1 (BGI SHENZHEN, priority 2014, published 2018):
Entries after “also recorded” stand apart in the source; their conditions may differ.

Test system: HVA calcium channel
Type: cell-based, rat

## GICCVDDTCTTHSGCL [κ-CPTx-btl05]
  current after loading (pA): −62.59 pA
  current before loading (pA): −391.32 pA
  inhibition of HVA calcium channel currents compared with Nifedipine (in words): inhibitory effect is higher than that of Nifedipine; also recorded: higher inhibition rate on HVA calcium channel currents than Nifedipine
10 μM
  inhibition rate (%): 83.24%
